Assay results from article PMC8092209, “Structural Basis of Ligand Selectivity by a Bacterial Adhesin Lectin Involved in Multispecies Biofilm Formation” (mBio, 2021).

How the values were obtained:
MpPA14 [1] = molecular target: T1, MpPA14 (Marinomonas primoryensis, UniProt A1YIY3); experiment: Second glycan array (32 polysaccharides, Max Planck Institute for Marine Microbiology); assay type: binding; details: for Binding of MpPA14 (RFUs): normalized signal intensity, maximal mean set to 100, cutoff of 5
T1 sequence (A1YIY3 entry or part of it): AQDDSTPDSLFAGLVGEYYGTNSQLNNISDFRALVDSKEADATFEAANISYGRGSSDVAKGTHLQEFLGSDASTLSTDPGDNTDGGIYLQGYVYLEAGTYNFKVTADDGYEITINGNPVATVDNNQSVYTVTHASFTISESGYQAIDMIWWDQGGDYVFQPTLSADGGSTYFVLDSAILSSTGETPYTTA
Source text: To expand the repertoire of glycans beyond glucans and mannans, we performed a second focused microarray composed of 32 polysaccharides found in microbes such as fungi and bacteria, as well as in macroalgae and plants (Fig. 4B). […] In addition, MpPA14 interacted avidly with fucoidans from macroalgae. […] This conformer is not present in the arabinan polymer composed of 1,5-linked α-L-arabino-furanoses, which are then not free to transition to the pyranose form. Similarly, since the MpPA14 binds galactose via the 1,2-diol (β-anomer) (Fig. 3H), the lectin cannot interact with galactans, as they are polymers of β-1,4-D-galactose (Fig. 4B and Table S5).
The second glycan array was performed at the Max Planck Institute for Marine Microbiology (Bremen, Germany). The array contained duplicates of 32 polysaccharides, including those from macroalgae, bacteria, fungi, and land plants (see details in Table S5 in the supplemental material). N-terminally His-tagged MpPA14 was incubated with the array, and binding of the lectin to the polysaccharides was detected by an anti-His tag secondary antibody conjugated to alkaline phosphatase (Sigma-Aldrich). Microarray probing and quantification were performed as previously described ([45]). Maximal mean (average of the duplicates) signal intensity was set to 100, and the rest of values were normalized accordingly. A cutoff of 5 was applied ([58]).

MpPA14 [2] = molecular target: T1, MpPA14; experiment: First glycan array (fungal, bacterial and plant polysaccharide array set 2, Imperial College); assay type: binding; details: for binding to MpPA14 in first glycan array (in words): GFP-MpPA14; for Binding of MpPA14 (RFUs): GFP-MpPA14 50 μg/ml, Alexa Fluor 647 anti-GFP antibody, mean of duplicates

Row | Substance | Binding of MpPA14 (RFUs) (MpPA14 [1]) | binding to MpPA14 in first glycan array (in words) (MpPA14 [2]) | Binding of MpPA14 (RFUs) (MpPA14 [2]) | binding to MpPA14 in second glycan array (in words) (MpPA14 [1])
1 | Partially acetylated alginate | 0 |  |  | 
2 | Lentinan (β-(1→3)-D-glucan backbone, β-(1→3)-D-glucan branches) |  | bound most avidly | 41060 | 
3 | Arabinoxylan | 0 |  |  | 
4 | Galactofucan | 40 |  |  | 
5 | Carboxymethyl cellulose (β-(1→4)-D-glucan) | 28 |  |  | 
6 | Dextran (α-(1→6)-D-glucan backbone) |  | bound most avidly | 41390 | 
7 | NSG (β-(1→3)-D-glucan backbone, β-(1→3)-D-glucan branches) |  |  | 2319 | 
8 | Curdlan (β-(1→3)-D-glucan) |  | negligible or no detectable binding | 167 | 
9 | Lichenan Mixed β-(1→3)/β-(1→4)-D-glucan [Lichenan (Lichen)] |  |  | 349 | 
10 | Pustulan (β-(1→6)-D-glucan) [Pustulan (Lasallia pustulata)] | 86 |  |  | significant binding
11 | Fucoidan [Fucoidan (Fucus vesiculosus)] | 29 |  |  | 
12 | Rhamnogalacturonan I | 0 |  |  | 
13 | Ulvan | 34 |  |  | 
14 | Fucoidan [Fucoidan (Cladosiphon)] | 100 |  |  | strongest MpPA14-binding fucoidans
15 | Porphyran | 0 |  |  | did not bind
16 | Mannan (β-(1→4)-D-mannan) [Mannan (Ivory nut)] | 15 |  |  | 
17 | Fucoidan [Fucoidan (Laminaria)] | 69 |  |  | 

Row | Substance | Binding of MpPA14 (RFUs) (MpPA14 [1]) | binding to MpPA14 in first glycan array (in words) (MpPA14 [2]) | Binding of MpPA14 (RFUs) (MpPA14 [2]) | binding to MpPA14 in second glycan array (in words) (MpPA14 [1])
18 | Xyloglucan | 0 |  |  | did not bind
19 | α-(1→5)-L-arabinan | 0 |  |  | did not bind
20 | Laminarin (β-(1→3)-D-glucan backbone with 1→6 branches) [Laminarin (Laminaria digitata)] | 41 |  |  | 
21 | Polygalacturonic acid (α-(1→4)-D-galacturonic acid) | 0 |  |  | 
22 | Laminarin (β-(1→3)-D-glucan backbone with 1→6 branches) [Laminarin (Eisenia bicyclis)] | 39 |  |  | 
23 | Alginate | 22 |  |  | 
24 | Fucoidan [Fucoidan (Ascophyllum nodosum)] | 77 |  |  | strongest MpPA14-binding fucoidans
25 | Fucoidan [Fucoidan (Fucus serratus)] | 53 |  |  | 
26 | β-(1→4)-D-xylan | 0 |  |  | did not bind
27 | β-(1→4)-D-galactan | 0 |  |  | did not bind
28 | Galactomannan (β-(1→4)-D-mannan backbone) | 0 |  |  | did not bind
29 | Scleroglucan (β-(1→3)-D-glucan backbone with 1→6 branches) | 65 |  |  | significant binding
30 | Glucomannan (β-(1→4)-D-mannose and D-glucose backbone) | 0 |  |  | 
31 | Lichenan (β-(1→3)(1→4)-D-glucan) [Lichenan (Icelandic moss)] | 44 |  |  | 
32 | Fucoidan [Fucoidan (Sargassum)] | 84 |  |  | strongest MpPA14-binding fucoidans
33 | Pachyman (β-(1→3)-D-glucan backbone with 1→6 branches) | 75 |  |  | significant binding
